# According to US20230226003A1, “NATURAL ANTIBACTERIAL AND ANTIVIRAL BIOLOGICAL COMPOSITIONS, COMPOUNDS, METHOD FOR OBTAINING SAME, AND USE THEREOF” (BEEOTEC HOLDING S/A, priority 2020, published 2023):
# Tested on: microorganisms on surfaces of a surgical center
# Assay: Efficiency of disinfectants: reduction of microbial counts on surgical center surfaces
# Details: post- vs pre-disinfection; same letter = no significant difference (p < 0.05)
row,SMILES,Reduction of counts microbial (%)
1,"OCl [0.5% sodium hypochlorite, sodium hypochlorite]",61 b %
2,"CC(C)O [70% isopropanol, isopropyl alcohol]",87 a %
